# In PubChem BioAssay (NCI):
#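 Where inhibition never reached the appropriate level, the endpoint shown equals the highest concentration tested. Otherwise, values were interpolated linearly from a five-concentration, 48-hour dose response in 96-well plates. Abbreviation: GI50, concentration required for 50% inhibition of growth. Definition used: TGI = concentration required for complete inhibition of growth.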
# Legend:
# Test in all cases: NCI tumour cell line growth inhibition, 48 h
# 786-0 renal = tested on: 786-0 renal
# COLO 205 colon = tested on: COLO 205 colon
# HCC-2998 colon = tested on: HCC-2998 colon
# SF-295 CNS = tested on: SF-295 CNS
# SNB-19 CNS = tested on: SNB-19 CNS
# SNB-75 CNS = tested on: SNB-75 CNS
# UACC-62 melanoma = tested on: UACC-62 melanoma
# UO-31 renal = tested on: UO-31 renal
# CCRF-CEM leukemia = tested on: CCRF-CEM leukemia
# NCI/ADR-RES ovarian = tested on: NCI/ADR-RES ovarian
compound,measurement,setting,value
COc1cc2ccnc3c2c(c1OC)-c1coc(SC)c1-3,TGI,786-0 renal,> 100 µM
same,TGI,COLO 205 colon,> 100 µM
same,TGI,HCC-2998 colon,> 100 µM
same,TGI,SF-295 CNS,> 100 µM
same,TGI,SNB-19 CNS,> 100 µM
same,TGI,SNB-75 CNS,79.3 µM
same,TGI,UACC-62 melanoma,> 100 µM
same,TGI,UO-31 renal,> 100 µM
CC(=O)[CH-]C(=O)c1ccccc1.CC(=O)[CH-]C(=O)c1ccccc1.CC[O-].CC[O-].[Hf+4],GI50,786-0 renal,> 100 µM
same,TGI,786-0 renal,> 100 µM
same,GI50,CCRF-CEM leukemia,69.1 µM
same,TGI,CCRF-CEM leukemia,> 100 µM
same,GI50,COLO 205 colon,> 100 µM
same,TGI,COLO 205 colon,> 100 µM
same,GI50,HCC-2998 colon,> 100 µM
same,TGI,HCC-2998 colon,> 100 µM
same,GI50,SF-295 CNS,> 100 µM
same,TGI,SF-295 CNS,> 100 µM
same,GI50,SNB-19 CNS,> 100 µM
same,TGI,SNB-19 CNS,> 100 µM
same,GI50,SNB-75 CNS,> 100 µM
same,TGI,SNB-75 CNS,> 100 µM
same,GI50,UACC-62 melanoma,> 100 µM
same,TGI,UACC-62 melanoma,> 100 µM
same,GI50,UO-31 renal,> 100 µM
same,TGI,UO-31 renal,> 100 µM
Cc1nc(Nc2ccccc2)sc1C(=O)CC(=O)C(=O)Nc1c(C(C)C)cccc1C(C)C,TGI,786-0 renal,> 100 µM
same,TGI,CCRF-CEM leukemia,> 100 µM
same,TGI,COLO 205 colon,> 100 µM
same,TGI,HCC-2998 colon,> 100 µM
same,TGI,SF-295 CNS,> 100 µM
same,TGI,SNB-19 CNS,> 100 µM
same,TGI,UACC-62 melanoma,> 100 µM
same,TGI,UO-31 renal,> 100 µM
NNC(=O)C1CCC(=O)N1S(=O)(=O)c1ccccc1 (configuration not stated),TGI,786-0 renal,> 100 µM
same,TGI,CCRF-CEM leukemia,> 100 µM
same,TGI,COLO 205 colon,> 100 µM
same,TGI,HCC-2998 colon,> 100 µM
same,TGI,SF-295 CNS,> 100 µM
same,TGI,SNB-19 CNS,> 100 µM
same,TGI,SNB-75 CNS,> 100 µM
same,TGI,UACC-62 melanoma,> 100 µM
same,TGI,UO-31 renal,> 100 µM
CN(C(=O)C12C3C4C1C1C2C3C41C(N)=O)C(C)(C)C (configuration not stated),TGI,786-0 renal,> 100 µM
same,TGI,CCRF-CEM leukemia,> 100 µM
same,TGI,COLO 205 colon,> 100 µM
same,TGI,HCC-2998 colon,> 100 µM
same,TGI,SF-295 CNS,> 100 µM
same,TGI,SNB-19 CNS,> 100 µM
same,TGI,SNB-75 CNS,> 100 µM
same,TGI,UACC-62 melanoma,> 100 µM
same,TGI,UO-31 renal,> 100 µM
O=C(Nc1ccc(Br)cc1F)c1cc(I)ccc1O,GI50,786-0 renal,3.32 µM
same,TGI,786-0 renal,11.4 µM
same,GI50,CCRF-CEM leukemia,3.58 µM
same,TGI,CCRF-CEM leukemia,> 100 µM
same,GI50,COLO 205 colon,12.8 µM
same,TGI,COLO 205 colon,30.8 µM
same,GI50,HCC-2998 colon,3.14 µM
same,TGI,HCC-2998 colon,12.7 µM
same,GI50,NCI/ADR-RES ovarian,2.63 µM
same,TGI,NCI/ADR-RES ovarian,8.5 µM
same,GI50,SF-295 CNS,2.11 µM
same,TGI,SF-295 CNS,4.85 µM
same,GI50,SNB-19 CNS,3.08 µM
same,TGI,SNB-19 CNS,> 100 µM
same,GI50,UACC-62 melanoma,1.37 µM
same,TGI,UACC-62 melanoma,4.43 µM
same,GI50,UO-31 renal,1.52 µM
same,TGI,UO-31 renal,7.51 µM
N/N=C(/C(=O)Nc1cccc(Cl)c1)C(C(=O)c1ccc(O)cc1O)C1OC(=O)c2ccccc21 (configuration not stated),TGI,786-0 renal,> 100 µM
same,TGI,CCRF-CEM leukemia,> 100 µM
same,TGI,COLO 205 colon,> 100 µM
same,TGI,HCC-2998 colon,> 100 µM
same,TGI,SF-295 CNS,> 100 µM
same,TGI,SNB-19 CNS,> 100 µM
same,TGI,UACC-62 melanoma,> 100 µM
same,TGI,UO-31 renal,> 100 µM
COc1cc(OC)c2nc(C)c3c(c2c1)SCC3,TGI,786-0 renal,35.4 µM
same,TGI,CCRF-CEM leukemia,> 100 µM
same,TGI,COLO 205 colon,> 100 µM
same,TGI,HCC-2998 colon,> 100 µM
same,TGI,NCI/ADR-RES ovarian,65.5 µM
same,TGI,SF-295 CNS,65.9 µM
same,TGI,SNB-19 CNS,34.8 µM
same,TGI,UACC-62 melanoma,56.4 µM
same,TGI,UO-31 renal,48.8 µM
O=[N+]([O-])c1ccc(-n2nnc(C3=NCCN3)c2-c2ccccc2)cc1,TGI,786-0 renal,> 100 µM
same,TGI,CCRF-CEM leukemia,> 100 µM
same,TGI,COLO 205 colon,> 100 µM
same,TGI,HCC-2998 colon,> 100 µM
same,TGI,SF-295 CNS,> 100 µM
same,TGI,SNB-19 CNS,> 100 µM
same,TGI,SNB-75 CNS,> 100 µM
same,TGI,UACC-62 melanoma,> 100 µM
same,TGI,UO-31 renal,> 100 µM
C=C/C=C/NC(=O)OCc1ccccc1,TGI,786-0 renal,> 100 µM
same,TGI,CCRF-CEM leukemia,> 100 µM
same,TGI,COLO 205 colon,> 100 µM
same,TGI,SF-295 CNS,> 100 µM
same,TGI,SNB-19 CNS,> 100 µM
same,TGI,SNB-75 CNS,> 100 µM
same,TGI,UACC-62 melanoma,> 100 µM
same,TGI,UO-31 renal,> 100 µM
CCOC(=O)CC[C@H](NC(=O)c1nc[nH]c1[N+](=O)[O-])C(=O)OCC,TGI,786-0 renal,> 100 µM
same,TGI,CCRF-CEM leukemia,> 100 µM
same,TGI,COLO 205 colon,> 100 µM
same,TGI,HCC-2998 colon,> 100 µM
same,TGI,SF-295 CNS,> 100 µM
same,TGI,SNB-19 CNS,> 100 µM
same,TGI,UACC-62 melanoma,> 100 µM
same,TGI,UO-31 renal,> 100 µM
O=C(O)CC[C@H](NC(=O)c1ccc(-n2nc3ccc(O)cc3nc2=O)cc1)C(=O)O,TGI,786-0 renal,> 100 µM
same,TGI,CCRF-CEM leukemia,> 100 µM
same,TGI,COLO 205 colon,> 100 µM
same,TGI,HCC-2998 colon,> 100 µM
same,TGI,SF-295 CNS,> 100 µM
same,TGI,SNB-19 CNS,> 100 µM
same,TGI,UACC-62 melanoma,> 100 µM
same,TGI,UO-31 renal,> 100 µM
CC(CN(C)C)/C(=N\Nc1ccccc1)c1ccccc1 (configuration not stated),TGI,786-0 renal,29.5 µM
same,TGI,CCRF-CEM leukemia,29.3 µM
same,TGI,COLO 205 colon,2.55 µM
same,TGI,SF-295 CNS,0.358 µM
same,TGI,SNB-19 CNS,34.4 µM
same,TGI,SNB-75 CNS,66.8 µM
same,TGI,UACC-62 melanoma,12.3 µM
same,TGI,UO-31 renal,3.28 µM
C/C(O)=C(/C=N/C(=S)Nc1ccc(S(N)(=O)=O)cc1)C(=O)Nc1ccccc1C,TGI,786-0 renal,> 100 µM
same,TGI,CCRF-CEM leukemia,65.9 µM
same,TGI,COLO 205 colon,> 100 µM
same,TGI,HCC-2998 colon,> 100 µM
same,TGI,NCI/ADR-RES ovarian,> 100 µM
same,TGI,SF-295 CNS,> 100 µM
same,TGI,SNB-19 CNS,> 100 µM
same,TGI,UACC-62 melanoma,> 100 µM
same,TGI,UO-31 renal,> 100 µM
O=C1C(c2ccccc2)=C(O)c2cccc3cccc1c23,TGI,786-0 renal,> 100 µM
same,TGI,CCRF-CEM leukemia,> 100 µM
same,TGI,COLO 205 colon,> 100 µM
same,TGI,HCC-2998 colon,> 100 µM
same,TGI,SF-295 CNS,> 100 µM
same,TGI,SNB-19 CNS,> 100 µM
same,TGI,SNB-75 CNS,> 100 µM
same,TGI,UACC-62 melanoma,> 100 µM
same,TGI,UO-31 renal,> 100 µM
OC(CCNC12CC3CC(CC(C3)C1)C2)c1ccccc1 (configuration not stated),TGI,786-0 renal,> 100 µM
same,TGI,CCRF-CEM leukemia,> 100 µM
same,TGI,COLO 205 colon,> 100 µM
same,TGI,HCC-2998 colon,> 100 µM
same,TGI,SF-295 CNS,> 100 µM
same,TGI,SNB-19 CNS,> 100 µM
same,TGI,SNB-75 CNS,> 100 µM
same,TGI,UACC-62 melanoma,> 100 µM
same,TGI,UO-31 renal,> 100 µM
CCOc1cc2c(C(=O)CC)c(O)ccc2o1,TGI,786-0 renal,> 100 µM
same,TGI,CCRF-CEM leukemia,> 85.1 µM
same,TGI,COLO 205 colon,> 100 µM
same,TGI,HCC-2998 colon,> 100 µM
same,TGI,SF-295 CNS,> 100 µM
same,TGI,SNB-19 CNS,> 100 µM
same,TGI,SNB-75 CNS,> 100 µM
same,TGI,UACC-62 melanoma,> 52.8 µM
same,TGI,UO-31 renal,> 100 µM
O=C(c1ccc(Cl)cc1Cl)C1[C@H]2C(=O)N(c3ccc(Cc4ccc(N5C(=O)[C@@H]6ON(c7ccccc7)C(C(=O)c7ccc(Cl)cc7Cl)[C@@H]6C5=O)cc4)cc3)C(=O)[C@H]2ON1c1ccccc1 (some centres not stated),TGI,786-0 renal,> 50 µM
same,TGI,CCRF-CEM leukemia,> 50 µM
same,TGI,COLO 205 colon,> 50 µM
same,TGI,HCC-2998 colon,> 50 µM
same,TGI,SF-295 CNS,> 50 µM
same,TGI,SNB-19 CNS,> 50 µM
same,TGI,SNB-75 CNS,> 50 µM
same,TGI,UACC-62 melanoma,> 50 µM
same,TGI,UO-31 renal,> 50 µM
C/C(=N/NC(=S)N1CCCCC1)c1ccccc1O,TGI,786-0 renal,> 31.6 µM
same,TGI,CCRF-CEM leukemia,> 31.6 µM
same,TGI,COLO 205 colon,> 31.6 µM
same,TGI,HCC-2998 colon,> 31.6 µM
same,TGI,NCI/ADR-RES ovarian,> 31.6 µM
same,TGI,SF-295 CNS,> 31.6 µM
same,TGI,SNB-19 CNS,> 31.6 µM
same,TGI,UACC-62 melanoma,> 31.6 µM
same,TGI,UO-31 renal,> 31.6 µM
COc1cc2c[n+](C)c3c4cc(OC)c(OC(C)C)cc4ccc3c2cc1OC,TGI,786-0 renal,> 100 µM
same,TGI,CCRF-CEM leukemia,> 100 µM
same,TGI,COLO 205 colon,31.2 µM
same,TGI,HCC-2998 colon,> 100 µM
same,TGI,SF-295 CNS,> 100 µM
same,TGI,SNB-19 CNS,> 100 µM
same,TGI,SNB-75 CNS,> 100 µM
same,TGI,UACC-62 melanoma,> 100 µM
same,TGI,UO-31 renal,> 100 µM
C=C1CC2OC(=O)C(=C)C2C(O)C2C(=C)CCC12 (configuration not stated),TGI,786-0 renal,26.7 µM
same,TGI,CCRF-CEM leukemia,10.2 µM
same,TGI,COLO 205 colon,12.9 µM
same,TGI,HCC-2998 colon,22.2 µM
same,TGI,SF-295 CNS,22.8 µM
same,TGI,SNB-19 CNS,30.8 µM
same,TGI,SNB-75 CNS,21.5 µM
same,TGI,UACC-62 melanoma,12.8 µM
same,TGI,UO-31 renal,29.7 µM
CCOC(C[C@H](O[Si](C)(C)C(C)(C)C)[C@H]1COC(=S)S1)OCC,TGI,786-0 renal,> 100 µM
same,TGI,CCRF-CEM leukemia,> 100 µM
same,TGI,COLO 205 colon,> 100 µM
same,TGI,HCC-2998 colon,> 100 µM
same,TGI,SF-295 CNS,> 100 µM
same,TGI,SNB-19 CNS,> 100 µM
same,TGI,UO-31 renal,> 100 µM
